Laboratory results published in US20160220573A1, “COMBINATION THERAPIES FOR TREATING CANCERS” (Gilead Sciences, Inc., priority 2015, published 2016).

System: CLL cells
Assay: Human CLL Apoptosis Assay
Format: cell-based
Conditions: without HS-5 co-culture
Experimental: Peripheral blood mononuclear cells (PBMCs) were isolated from primary chronic lymphocytic leukemia (CLL) patients and cultured for 3-5 hours in Lymphocyte Growth Medium (LGM, RPMI 1640, 1 mM Sodium Pyruvate, 10 mM HEPES, pH 7.4, 100 U/mL Penicillin/100 μg/mL Streptomycin, 55 μM β-Mercaptoethanl, 2 mM GlutaMAX, and 10% FBS) at 37° C. with 5% CO2. Cells were then centrifuged at room temperature for 10 minutes and resuspended in an appropriate volume of LGM for plating (maximum cell density=3.12×10^6/ml). Final assay wells were set up in U-bottom 96-well tissue culture plates with HS-5 co-culture (plates were coated with 3×10^4 HS-5 cells in 100 μl overnight at 37° C. prior to the assay) or no co-culture.
Cell suspensions (80 μL, 2.5×10^5-9.4×10^4) were added to the plate and incubated for 1 hour prior to stimulation with αIgM/αIgG (7.8 μg/well) and αCD40 (4 μg/well). Cells were incubated with compounds for about 66 hours at 37° C. After incubation, the cells were transferred to deeper plates and washed once with 500 μL of 1×PBS^+/+. Cells were resuspended in Invitrogen's aqua Live/Dead reagent according to manufacturer's directions and incubated 30 minutes on ice. Aqua Live/Dead was quenched with an equal volume of PBS^+/+ with 4% FBS (FACS buffer). Cells were centrifuged and labeled with αCD5^−PE, αCD19-BV421 and AnnexinV-APC in a total volume of […] and incubated 30 minutes on ice. After labeling, cells were rinsed twice in FACS buffer and then fixed with BD Fixation buffer for 30 minutes on ice. Cells were rinsed twice with FACS buffer and analyzed.
For the apoptosis analysis, flow cytometric sampling of 5000-20,000 total events were collected on a BD FACS Canto II instrument using a high throughput screen (HTS) autosampler for analysis of apoptosis. CD5^+/CD19^+ cells were identified and subsequently gated for AnnexinV^+/LiveDead and AnnexinV^+/LiveDead^+ populations.
Flow cytometric data were extracted to a flow cytometry standard (fcs) file. Average percentages of AnnexinV^+ cells were determined for the positive control and negative wells (no compound). The percentage of AnnexinV^+ cells represented the percentage or levels of apoptosis. Similar results were obtained for CLL cells with HS-5 co-culture.

SMILES: c1cn2cc(-c3ccc4cn[nH]c4c3)nc(Nc3ccc(N4CCOCC4)cc3)c2n1 [Compound A1, 6-(1H-indazol-6-yl)-N-(4-morpholinophenyl)imidazo[1,2-a]pyrazin-8-amine]
- Percentage of the AnnexinV^+ cells from CLL patients (Sample 1, 0 nM Compound B1, 30 nM Compound A1): 12%
- Percentage of the AnnexinV^+ cells from CLL patients (Sample 1, 0 nM Compound B1, 100 nM Compound A1): 12%
- Percentage of the AnnexinV^+ cells from CLL patients (Sample 1, 0 nM Compound B1, 300 nM Compound A1): 16%
- Percentage of the AnnexinV^+ cells from CLL patients (Sample 2, 0 nM Compound B1, 30 nM Compound A1): 9%
- Percentage of the AnnexinV^+ cells from CLL patients (Sample 2, 0 nM Compound B1, 100 nM Compound A1): 12%
- Percentage of the AnnexinV^+ cells from CLL patients (Sample 2, 0 nM Compound B1, 300 nM Compound A1): 20%
- Percentage of the AnnexinV^+ cells from CLL patients (Sample 3, 0 nM Compound B1, 30 nM Compound A1): 13%
- Percentage of the AnnexinV^+ cells from CLL patients (Sample 3, 0 nM Compound B1, 100 nM Compound A1): 15%
- Percentage of the AnnexinV^+ cells from CLL patients (Sample 3, 0 nM Compound B1, 300 nM Compound A1): 18%

SMILES: CC1(C)CCC(CN2CCN(c3ccc(C(=O)NS(=O)(=O)c4ccc(NCC5CCOCC5)c([N+](=O)[O-])c4)c(Oc4cnc5[nH]ccc5c4)c3)CC2)=C(c2ccc(Cl)cc2)C1 [Compound B1]
- Percentage of the AnnexinV^+ cells from CLL patients (Sample 1, 0.8 nM Compound B1, 0 nM Compound A1): 13%
- Percentage of the AnnexinV^+ cells from CLL patients (Sample 1, 1.6 nM Compound B1, 0 nM Compound A1): 15%
- Percentage of the AnnexinV^+ cells from CLL patients (Sample 1, 3.1 nM Compound B1, 0 nM Compound A1): 15%
- Percentage of the AnnexinV^+ cells from CLL patients (Sample 1, 6.3 nM Compound B1, 0 nM Compound A1): 16%
- Percentage of the AnnexinV^+ cells from CLL patients (Sample 1, 12.5 nM Compound B1, 0 nM Compound A1): 19%
- Percentage of the AnnexinV^+ cells from CLL patients (Sample 1, 25 nM Compound B1, 0 nM Compound A1): 24%
- Percentage of the AnnexinV^+ cells from CLL patients (Sample 1, 50 nM Compound B1, 0 nM Compound A1): 31%
- Percentage of the AnnexinV^+ cells from CLL patients (Sample 1, 100 nM Compound B1, 0 nM Compound A1): 36%
- Percentage of the AnnexinV^+ cells from CLL patients (Sample 1, 200 nM Compound B1, 0 nM Compound A1): 46%
- Percentage of the AnnexinV^+ cells from CLL patients (Sample 2, 0.8 nM Compound B1, 0 nM Compound A1): 10%
- Percentage of the AnnexinV^+ cells from CLL patients (Sample 2, 1.6 nM Compound B1, 0 nM Compound A1): 18%
- Percentage of the AnnexinV^+ cells from CLL patients (Sample 2, 3.1 nM Compound B1, 0 nM Compound A1): 35%
- Percentage of the AnnexinV^+ cells from CLL patients (Sample 2, 6.3 nM Compound B1, 0 nM Compound A1): 55%
- Percentage of the AnnexinV^+ cells from CLL patients (Sample 2, 12.5 nM Compound B1, 0 nM Compound A1): 76%
- Percentage of the AnnexinV^+ cells from CLL patients (Sample 2, 25 nM Compound B1, 0 nM Compound A1): 89%
- Percentage of the AnnexinV^+ cells from CLL patients (Sample 2, 50 nM Compound B1, 0 nM Compound A1): 93%
- Percentage of the AnnexinV^+ cells from CLL patients (Sample 2, 100 nM Compound B1, 0 nM Compound A1): 95%
- Percentage of the AnnexinV^+ cells from CLL patients (Sample 2, 200 nM Compound B1, 0 nM Compound A1): 97%
- Percentage of the AnnexinV^+ cells from CLL patients (Sample 3, 0.8 nM Compound B1, 0 nM Compound A1): 16%
- Percentage of the AnnexinV^+ cells from CLL patients (Sample 3, 1.6 nM Compound B1, 0 nM Compound A1): 21%
- Percentage of the AnnexinV^+ cells from CLL patients (Sample 3, 3.1 nM Compound B1, 0 nM Compound A1): 33%
- Percentage of the AnnexinV^+ cells from CLL patients (Sample 3, 6.3 nM Compound B1, 0 nM Compound A1): 50%
- Percentage of the AnnexinV^+ cells from CLL patients (Sample 3, 12.5 nM Compound B1, 0 nM Compound A1): 69%
- Percentage of the AnnexinV^+ cells from CLL patients (Sample 3, 25 nM Compound B1, 0 nM Compound A1): 89%
- Percentage of the AnnexinV^+ cells from CLL patients (Sample 3, 50 nM Compound B1, 0 nM Compound A1): 97%
- Percentage of the AnnexinV^+ cells from CLL patients (Sample 3, 100 nM Compound B1, 0 nM Compound A1): 99%
- Percentage of the AnnexinV^+ cells from CLL patients (Sample 3, 200 nM Compound B1, 0 nM Compound A1): 100%
